Source: patent publication US20250206825A1, “COMPOSITION FOR PREVENTING OR TREATING MYOCARDITIS, COMPRISING VLA-4 INHIBITOR” (OSAKA UNIVERSITY, priority 2022, published 2025)

What was measured:
MRL-Pdcd1^−/− mice = test: AJM300 mixed diet in myocarditis model (survival, echocardiography); format: in vivo, mouse
Description: […] MRL-Pdcd1^−/− mice were divided into two groups: AJM300 (−) group (n=13) not to be administered with the AJM300 and AJM300 (+) group (n=12) to be administered with the AJM300.
The AJM300 group (+) was administered with a mixed diet containing 1% of AJM300 from 2 weeks of age until death.
At 28 days of age, 9 mice in the AJM300 (−) group and 10 mice in the AJM300 (+) group were evaluated for the cardiac function by the echocardiography and then euthanized to collect heart and blood samples.

[1] = tested on: cardiac fibroblasts and splenic monocytes; test: Adhesion experiment of monocytes with cardiac fibroblasts in vitro (TNFα stimulation); format: cell-based, neonatal rat (fibroblasts), mouse (monocytes); conditions: stimulation with TNFα for 24 hours; monocytes incubated 30 min at 37° C.; In Cell Analyzer 6000
Description: (§1) For the cardiac fibroblasts, fibroblasts isolated after cell dispersion of a heart harvested from a neonatal rat with Collagenase type 2 (Worthington Biochemical Corporation, LS004176) were cultured in a 96-well plate. For splenic monocytes, a spleen was harvested from a wild-type mouse and homogenized, and then the monocyte fraction was collected by specific gravity separation using Optiprep (Serumwerk Bernburg, 1893). For the adhesion experiment, the cardiac fibroblasts were cultured in the 96-well plate for 48 hours, and then medium was replaced with TNFα+/− and cultured for another 24 hours. The splenic monocytes subjected to fluorescent staining (Hoechst 33342 (DOJINDO LABORATORIES, 341-07901) or Cytored (DOJINDO LABORATORIES, 342-08531)) were added and incubated at 37° C. for 30 min. After washing 6 times with PBS (−) to remove non-adherent monocytes, and then adherent monocytes were counted on In Cell Analyzer 6000 (GE Healthcare Life Sciences).
(§2) The TNFα (Peprotech, 300-01A) was added to the wells at a final concentration of 5 to 15 ng/ml.

Vcam-1 = test: Induction of Vcam-1 by TNFα in cardiac fibroblasts (Western blotting); format: cell-based, rat; conditions: 12 hours and 24 hours after addition of TNFα versus 0 hour, TNFα 5 to 15 ng/ml
Description: as §1, §2
Induction of the Vcam-1 by the TNFα was determined by Western blotting. Anti-Vcam1 antibody EPR5047 (Abcam, ab134047) was used as a primary antibody for the Western blotting. An HRP-conjugated anti-Rabbit antibody was used for detection, and Chemi-Lumi One L (Nacalai tesque, 07880-70) was used as a luminescence reagent. […]

[2] = 1% AJM300 mixed diet, 28 days of age, versus AJM300 (−) group, t-test p=0.0231

Row | Molecule | heart rate (echocardiography) (MRL-Pdcd1^−/− mice; [2]) | left ventricular contractile performance: % Fractional Shortening (MRL-Pdcd1^−/− mice; [2]) | survival time (Kaplan-Meier) versus AJM300 (−) group (MRL-Pdcd1^−/− mice; mixed diet containing 1% of AJM300 from 2 weeks of age until death, Log-rank test p=0.0022) | adhesion between the cardiac fibroblasts and the monocytes [1] | expression of the Vcam-1 (Western blotting) (Vcam-1)
1 | COC(=O)[C@H](Cc1ccc(-n2c(=O)c3cc(N(C)C)ccc3n(C)c2=O)cc1)NC(=O)c1c(Cl)cccc1Cl [AJM300, carotegrast methyl] | significantly ameliorated bradycardia | significantly improved left ventricular contractile performance | significantly prolonged | – | –
2 | TNFα | – | – | – | strengthened | increased more
